Here are results for 20 compounds from PubChem BioAssay AID316 (DTP/NCI, 2004).

Values joined by “and” are separate entries in the source; they are usually repeats but may differ in a detail not shown here. Equal entries are not always repeated. Toxic doses and inconclusive results are not listed.

This test deals with P1534 leukemia ip, CD2F1 mice, survival T/C. Nature of the test: NCI In Vivo Anticancer Drug Screen. Data for tumor model P1534 Leukemia (intraperitoneal) in CD2F1 (CDF1) mice. To be noted: higher = longer survival. As for the experimental part: The antitumor activity of compounds was measured in mice bearing transplantable tumors. Survival or tumor size were measured and the results are expressed as the measurement made in the treated group (T) divided by the measurement made in the vehicle treated control group (C). The tumor model used in this assay is P1534 Leukemia (intraperitoneal) in CD2F1 (CDF1) mice

[1] abbreviates: endpoint: mean survival time, dose: 50.0 mg/kg/injection, schedule: Q01DX010 (ip), vehicle: saline.
Where [2] appears, read: endpoint: mean survival time, dose: 100.0 mg/kg/injection, schedule: Q01DX010 (ip), vehicle: saline.
Where [3] appears, read: endpoint: mean survival time, dose: 200.0 mg/kg/injection, schedule: Q01DX010 (ip), vehicle: saline.
The mark [4] stands for this setting: endpoint: mean survival time, dose: 400.0 mg/kg/injection, schedule: Q01DX010 (ip), vehicle: saline.
Setting [5] is: endpoint: mean survival time, dose: 12.5 mg/kg/injection, schedule: Q01DX010 (sc), vehicle: steriod suspending solution.
Where [6] appears, read: endpoint: mean survival time, dose: 150.0 mg/kg/injection, schedule: Q01DX010 (ip), vehicle: water.
[7] abbreviates: endpoint: mean survival time, dose: 200.0 mg/kg/injection, schedule: Q01DX010 (ip), vehicle: water.
Setting [8] is: endpoint: mean survival time, dose: 25.0 mg/kg/injection, schedule: Q01DX010 (ip), vehicle: saline.

As to `O=CC(NC(=O)N(CCCl)N=O)C(O)C(O)C(O)CO` (stereo not given), the T/C was 110 % of control (endpoint: median survival time, dose: 0.62 mg/kg/injection, schedule: Q01DX005 (ip), vehicle: other); 156 % of control (endpoint: median survival time, dose: 2.5 mg/kg/injection, schedule: Q01DX005 (ip), vehicle: other); 224 % of control (endpoint: median survival time, dose: 5.0 mg/kg/injection, schedule: Q01DX005 (ip), vehicle: other); 89 % of control (endpoint: median survival time, dose: 10.0 mg/kg/injection, schedule: Q01DX005 (ip), vehicle: other).
For the compound `COc1ccc2[nH]c3c(C)c4ccncc4c(C)c3c2c1`, the T/C was 105 % of control and 102 % of control (endpoint: mean survival time, dose: 10.0 mg/kg/injection, schedule: Q01DX010 (ip), vehicle: saline); 110 % of control and 117 % of control (endpoint: mean survival time, dose: 20.0 mg/kg/injection, schedule: Q01DX010 (ip), vehicle: saline); 115 % of control and 123 % of control (endpoint: mean survival time, dose: 40.0 mg/kg/injection, schedule: Q01DX010 (ip), vehicle: saline); 122 % of control (endpoint: mean survival time, dose: 80.0 mg/kg/injection, schedule: Q01DX010 (ip), vehicle: saline).
As for `O=C1C(=O)N(CN2CCOCC2)c2ccccc21`, the T/C was 100 % of control under setting [1], 100 % of control under setting [2], 96 % of control under setting [3] and 103 % of control under setting [4].
With `O=c1ccc2ccccc2o1`, the T/C was 107 % of control under setting [1], 107 % of control under setting [2] and 107 % of control under setting [3].
For `C[C@]12C=CC(=O)C=C1CC[C@@H]1[C@@H]2CC[C@]2(C)OC(=O)CC[C@@H]12`, the T/C by setting is: under setting [5], 107 % of control; (endpoint: mean survival time, dose: 25.0 mg/kg/injection, schedule: Q01DX010 (sc), vehicle: steriod suspending solution) 107 % of control; (endpoint: mean survival time, dose: 50.0 mg/kg/injection, schedule: Q01DX010 (sc), vehicle: steriod suspending solution) 107 % of control; (endpoint: mean survival time, dose: 100.0 mg/kg/injection, schedule: Q01DX010 (sc), vehicle: steriod suspending solution) 100 % of control.
With `CC1CCC2(NC1)OC1CC3C4CCC5CC(OC6OC(CO)C(OC7OC(CO)C(O)C(OC8OCC(O)C(O)C8O)C7OC7OC(CO)C(O)C(O)C7O)C(O)C6O)CCC5(C)C4CCC3(C)C1C2C` (stereo not given), the T/C runs as follows: (endpoint: mean survival time, dose: 5.0 mg/kg/injection, schedule: Q01DX010 (sc), vehicle: steriod suspending solution) 100 % of control; (endpoint: mean survival time, dose: 10.0 mg/kg/injection, schedule: Q01DX010 (sc), vehicle: steriod suspending solution) 100 % of control.
Take `Cc1n[nH]c(C)c1Br`: the T/C under setting [6] was 101 % of control and the T/C under setting [7] was 104 % of control.
Consider `CCC12CCCN3CCc4c(n(c5ccccc45)C(O)(C(=O)OC)C1)C32` (stereo not given), for which the T/C by setting is: (endpoint: mean survival time, dose: 1.88 mg/kg/injection, schedule: Q01DX010 (ip), vehicle: saline) 90 % of control; (endpoint: mean survival time, dose: 3.75 mg/kg/injection, schedule: Q01DX010 (ip), vehicle: saline) 93 % of control; (endpoint: mean survival time, dose: 7.5 mg/kg/injection, schedule: Q01DX010 (ip), vehicle: saline) 96 % of control.
In the case of `Nc1ncnc2[nH]ncc12`, the T/C by setting is: (endpoint: mean survival time, dose: 1.5 mg/kg/injection, schedule: Q01DX010 (ip), vehicle: saline) 100 % of control; (endpoint: mean survival time, dose: 3.0 mg/kg/injection, schedule: Q01DX010 (ip), vehicle: saline) 110 % of control and 100 % of control; (endpoint: mean survival time, dose: 6.0 mg/kg/injection, schedule: Q01DX010 (ip), vehicle: saline) 120 % of control and 100 % of control; (endpoint: mean survival time, dose: 12.0 mg/kg/injection, schedule: Q01DX010 (ip), vehicle: saline) 115 % of control and 95 % of control.
On to `Cc1cc(C)n(C(N)=O)n1`, for which the T/C under setting [6] was 96 % of control and the T/C under setting [7] was 111 % of control.
For `Cc1cc2nc3c(=O)[nH]c(=O)nc-3n(CC(O)C(O)C(O)C(O)CO)c2cc1C` (stereo not given), the T/C is, setting by setting: under setting [8], 111 % of control; under setting [1], 107 % of control and 100 % of control; under setting [2], 107 % of control and 111 % of control; under setting [3], 111 % of control.
For the compound `CC(=O)OC(C)(C)/C=C/C(=O)[C@](C)(O)[C@H]1[C@H](O)C[C@@]2(C)[C@@H]3CC=C4[C@@H](C[C@H](O)C(=O)C4(C)C)[C@]3(C)C(=O)C[C@]12C`, the T/C by setting is: (endpoint: mean survival time, dose: 0.16 mg/kg/injection, schedule: Q01DX010 (ip), vehicle: saline) 96 % of control; (endpoint: mean survival time, dose: 0.25 mg/kg/injection, schedule: Q01DX010 (ip), vehicle: saline) 100 % of control; (endpoint: mean survival time, dose: 0.38 mg/kg/injection, schedule: Q01DX010 (ip), vehicle: saline) 103 % of control.
On to `NCC(=O)NCCCCCCNCCCCCCNC(=O)CN`, for which the T/C by setting is: under setting [1], 100 % of control; under setting [2], 100 % of control; under setting [3], 100 % of control; under setting [4], 100 % of control.
For `C/C=C1/CN(C)C2Cc3c([nH]c4ccccc34)C(c3cc4[nH]c5c(c4cc3OC)CCN3CC4CC(C(C)O)C3C5(C(=O)OC)C4)CC1C2C(=O)OC` (stereo not given), the T/C was 98 % of control (endpoint: mean survival time, dose: 5.0 mg/kg/injection, schedule: Q01DX010 (ip), vehicle: water); 103 % of control (endpoint: mean survival time, dose: 10.0 mg/kg/injection, schedule: Q01DX010 (ip), vehicle: other); 96 % of control (endpoint: mean survival time, dose: 10.0 mg/kg/injection, schedule: Q01DX010 (ip), vehicle: water); 94 % of control (endpoint: mean survival time, dose: 15.0 mg/kg/injection, schedule: Q01DX010 (ip), vehicle: water); 92 % of control (endpoint: mean survival time, dose: 20.0 mg/kg/injection, schedule: Q01DX010 (ip), vehicle: other); 107 % of control (endpoint: mean survival time, dose: 20.0 mg/kg/injection, schedule: Q01DX010 (ip), vehicle: water). Besides, the T/C runs as follows: (endpoint: mean survival time, dose: 30.0 mg/kg/injection, schedule: Q01DX010 (ip), vehicle: other) 94 % of control; (endpoint: mean survival time, dose: 40.0 mg/kg/injection, schedule: Q01DX010 (ip), vehicle: other) 92 % of control.
With `CN1C2CCC1CC(OC(=O)C(CO)c1ccccc1)C2` (stereo not given), the T/C was 96 % of control under setting [8] and 100 % of control under setting [1].
For the compound `NCCCCCCNCCCCCCN`, the T/C by setting is: (endpoint: mean survival time, dose: 1.56 mg/kg/injection, schedule: Q01DX010 (ip), vehicle: saline) 100 % of control; (endpoint: mean survival time, dose: 3.13 mg/kg/injection, schedule: Q01DX010 (ip), vehicle: saline) 100 % of control; (endpoint: mean survival time, dose: 6.25 mg/kg/injection, schedule: Q01DX010 (ip), vehicle: saline) 100 % of control; (endpoint: mean survival time, dose: 12.5 mg/kg/injection, schedule: Q01DX010 (ip), vehicle: saline) 92 % of control and 100 % of control.
For the compound `O=C(NO)c1cccnc1`, the T/C reads like this: (endpoint: mean survival time, dose: 270.0 mg/kg/injection, schedule: Q01DX010 (ip), vehicle: water) 113 % of control; (endpoint: mean survival time, dose: 400.0 mg/kg/injection, schedule: Q01DX010 (ip), vehicle: water) 107 % of control; (endpoint: mean survival time, dose: 600.0 mg/kg/injection, schedule: Q01DX010 (ip), vehicle: water) 107 % of control and 120 % of control.
Regarding `CS(=O)(=O)OCCC(=O)N1CCN(C(=O)CCOS(C)(=O)=O)CC1`, the T/C by setting is: under setting [8], 160 % of control; under setting [1], 150 % of control; under setting [2], 270 % of control.
For the compound `C[C@]12C=CC(=O)C=C1CC[C@@H]1[C@@H]2C(=O)C[C@@]2(C)[C@H]1CC[C@]2(O)C(=O)CO`, the T/C (endpoint: mean survival time, dose: 3.13 mg/kg/injection, schedule: Q01DX010 (sc), vehicle: steriod suspending solution) is 99 % of control; the T/C (endpoint: mean survival time, dose: 6.25 mg/kg/injection, schedule: Q01DX010 (sc), vehicle: steriod suspending solution) was 95 % of control; the T/C (endpoint: mean survival time, dose: 10.0 mg/kg/injection, schedule: Q01DX005 (sc), vehicle: steriod suspending solution) was 105 % of control and 109 % of control and 100 % of control; the T/C under setting [5] is 88 % of control; the T/C (endpoint: mean survival time, dose: 50.0 mg/kg/injection, schedule: Q01DX005 (sc), vehicle: steriod suspending solution) was 107 % of control and 108 % of control and 110 % of control; the T/C (endpoint: mean survival time, dose: 100.0 mg/kg/injection, schedule: Q01DX005 (sc), vehicle: steriod suspending solution) is 108 % of control and 99 % of control and 100 % of control. Further, the T/C was 86 % of control and 102 % of control (endpoint: mean survival time, dose: 200.0 mg/kg/injection, schedule: Q01DX005 (sc), vehicle: steriod suspending solution); 90 % of control and 93 % of control (endpoint: mean survival time, dose: 250.0 mg/kg/injection, schedule: Q01DX005 (sc), vehicle: steriod suspending solution).
In the case of `CC(=O)NNC(=O)c1ccccn1`, the T/C was 100 % of control (endpoint: mean survival time, dose: 110.0 mg/kg/injection, schedule: Q01DX010 (ip), vehicle: water); 107 % of control (endpoint: mean survival time, dose: 120.0 mg/kg/injection, schedule: Q01DX010 (ip), vehicle: water); 98 % of control (endpoint: mean survival time, dose: 140.0 mg/kg/injection, schedule: Q01DX010 (ip), vehicle: water); 112 % of control (endpoint: mean survival time, dose: 160.0 mg/kg/injection, schedule: Q01DX010 (ip), vehicle: water).
